In patent US20250064941A1, “SIGLEC LIGANDS, CONJUGATES, AND METHODS OF USE THEREOF” (Osprey Biopharmaceuticals, Inc., priority 2023, published 2025):

Experiments:
[1] = molecular target: T1, mouse Siglec-2-Fc-Avi (CD22) (Mus musculus, UniProt P35329); assay: SPR binding affinity to mouse CD22; details: steady-state analysis
T1 construct: made in house
T1 sequence (P35329 22-708 limits assumed): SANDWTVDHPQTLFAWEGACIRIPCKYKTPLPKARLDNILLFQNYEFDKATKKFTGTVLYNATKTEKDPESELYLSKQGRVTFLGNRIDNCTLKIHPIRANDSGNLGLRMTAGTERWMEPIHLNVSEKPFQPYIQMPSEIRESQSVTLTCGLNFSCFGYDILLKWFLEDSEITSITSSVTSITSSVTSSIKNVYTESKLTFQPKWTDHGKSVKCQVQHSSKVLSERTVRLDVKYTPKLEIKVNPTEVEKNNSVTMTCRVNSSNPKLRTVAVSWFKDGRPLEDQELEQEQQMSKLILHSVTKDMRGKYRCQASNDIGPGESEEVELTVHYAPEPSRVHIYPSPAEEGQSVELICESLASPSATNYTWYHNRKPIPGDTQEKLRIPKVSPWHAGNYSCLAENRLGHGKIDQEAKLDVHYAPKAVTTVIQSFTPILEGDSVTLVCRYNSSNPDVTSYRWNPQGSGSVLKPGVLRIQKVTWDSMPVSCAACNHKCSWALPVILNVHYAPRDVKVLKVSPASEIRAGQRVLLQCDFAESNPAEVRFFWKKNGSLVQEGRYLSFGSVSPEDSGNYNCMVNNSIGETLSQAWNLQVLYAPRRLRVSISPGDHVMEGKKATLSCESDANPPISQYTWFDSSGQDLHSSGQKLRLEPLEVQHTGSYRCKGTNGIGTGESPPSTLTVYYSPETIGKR
How it was run: (§1)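 Using a Biacore 8K, compounds were tested against biotinylated CD22 captured after sialidase treatment. The running buffer held 1% DMSO, corrected with a 0.5–2% DMSO series. Affinity was derived by steady-state analysis.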

[2] = molecular target: T2, human Siglec-2/CD22 protein (Homo sapiens, UniProt P20273); assay: SPR binding affinity to human CD22; details: steady-state analysis
T2 construct: purchased Acro Biosystems SI2-H82E3
T2 sequence (P20273 20-847): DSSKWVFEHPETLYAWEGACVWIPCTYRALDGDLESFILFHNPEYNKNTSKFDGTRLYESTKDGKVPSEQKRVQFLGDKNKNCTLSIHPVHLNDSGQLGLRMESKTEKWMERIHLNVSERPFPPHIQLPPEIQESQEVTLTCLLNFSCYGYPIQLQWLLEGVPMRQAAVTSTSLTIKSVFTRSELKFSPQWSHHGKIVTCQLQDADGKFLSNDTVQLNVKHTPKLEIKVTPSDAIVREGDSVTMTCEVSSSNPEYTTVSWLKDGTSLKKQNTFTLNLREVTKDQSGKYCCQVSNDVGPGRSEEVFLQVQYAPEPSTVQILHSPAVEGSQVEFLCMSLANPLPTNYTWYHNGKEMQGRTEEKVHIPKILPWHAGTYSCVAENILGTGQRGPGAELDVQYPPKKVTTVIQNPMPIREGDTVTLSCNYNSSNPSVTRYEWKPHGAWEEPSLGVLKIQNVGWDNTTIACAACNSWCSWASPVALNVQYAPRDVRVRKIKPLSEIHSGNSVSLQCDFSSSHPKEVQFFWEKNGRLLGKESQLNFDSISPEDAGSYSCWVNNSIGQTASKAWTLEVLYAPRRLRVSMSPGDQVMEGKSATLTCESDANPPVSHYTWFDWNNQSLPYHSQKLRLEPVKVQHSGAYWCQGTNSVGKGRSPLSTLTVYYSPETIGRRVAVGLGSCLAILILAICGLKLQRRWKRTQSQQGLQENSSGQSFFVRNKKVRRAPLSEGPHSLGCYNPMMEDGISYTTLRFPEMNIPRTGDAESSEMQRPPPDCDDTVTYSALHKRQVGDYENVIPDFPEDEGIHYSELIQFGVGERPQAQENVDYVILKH
How it was run: as §1

cynomolgus Siglec-2/CD22 = cynomolgus Siglec-2/CD22 (Macaca fascicularis, UniProt A0A2K5WCZ6); assay: biochemical; type: binding; details: SPR, steady-state analysis; read-out: Affinity cyno CD22
How it was run: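 Compound binding measured by steady-state SPR analysis, 120 s dissociation, in HEPES-NaCl-Tween buffer pH 7.5 containing 1% DMSO, DMSO solvent-corrected. Surface: cyno CD22, sialic acids first stripped by SialoExo for 4 h at 37° C., then amine-coupled onto CM5.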

Sequence of cynomolgus Siglec-2/CD22 (A0A2K5WCZ6 entry or part of it): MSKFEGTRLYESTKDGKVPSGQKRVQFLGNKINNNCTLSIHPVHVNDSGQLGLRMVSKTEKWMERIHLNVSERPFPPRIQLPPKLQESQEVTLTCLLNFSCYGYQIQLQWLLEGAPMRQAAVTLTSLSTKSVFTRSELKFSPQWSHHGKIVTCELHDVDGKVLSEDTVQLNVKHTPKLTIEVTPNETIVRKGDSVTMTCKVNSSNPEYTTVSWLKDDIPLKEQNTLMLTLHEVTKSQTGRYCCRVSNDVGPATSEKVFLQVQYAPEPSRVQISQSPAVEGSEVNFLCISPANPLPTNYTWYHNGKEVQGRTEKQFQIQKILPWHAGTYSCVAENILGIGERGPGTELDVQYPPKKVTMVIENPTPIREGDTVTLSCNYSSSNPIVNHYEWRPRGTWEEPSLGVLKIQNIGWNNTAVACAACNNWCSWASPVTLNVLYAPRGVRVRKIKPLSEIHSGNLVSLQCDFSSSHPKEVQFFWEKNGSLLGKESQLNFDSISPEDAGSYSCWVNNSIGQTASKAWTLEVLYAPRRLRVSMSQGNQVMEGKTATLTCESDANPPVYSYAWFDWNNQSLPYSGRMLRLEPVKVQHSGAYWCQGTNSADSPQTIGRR

SMILES | Kd [1] [µM] | Kd [2] [µM] | Kd (cynomolgus Siglec-2/CD22) [µM]
C#CCOCCOCCO[C@]1(C(=O)O)C[C@H](O)[C@@H](NC(=O)CO)[C@H]([C@H](O)[C@H](O)CNC(=O)Cc2cc(O)cc(Cl)c2)O1 [Compound 129, (2R,4S,5R,6R)-6-((1R,2R)-3-(2-(3-chloro-5-hydroxyphenyl)acetamido)-1,2-dihydroxypropyl)-4-hydroxy-5-(2-hydroxyacetamido)-2-(2-(2-(prop-2-yn-1-yloxy)ethoxy)ethoxy)tetrahydro-2H-pyran-2-carboxylic acid] | 1 to 10 | < 1 | < 1
C#CCOCCCCCCO[C@]1(C(=O)O)C[C@H](O)[C@@H](NC(=O)CO)[C@H]([C@H](O)[C@H](O)CNC(=O)Cc2ccc(Cl)c(F)c2)O1 [Compound 130, (2R,4S,5R,6R)-6-((1R,2R)-3-(2-(4-chloro-3-fluorophenyl)acetamido)-1,2-dihydroxypropyl)-4-hydroxy-5-(2-hydroxyacetamido)-2-((6-(prop-2-yn-1-yloxy)hexyl)oxy)tetrahydro-2H-pyran-2-carboxylic acid] | 1 to 10 | < 1 | < 1
C#CCCOc1ccc(CS[C@]2(C(=O)O)C[C@H](O)[C@@H](NC(=O)CO)[C@H]([C@H](O)[C@H](O)CNC(=O)Cc3ccc(Cl)c(O)c3)O2)cc1 [Compound 131, (2S,4S,5R,6R)-2-((4-(but-3-yn-1-yloxy)benzyl)thio)-6-((1R,2R)-3-(2-(4-chloro-3-hydroxyphenyl)acetamido)-1,2-dihydroxypropyl)-4-hydroxy-5-(2-hydroxyacetamido)tetrahydro-2H-pyran-2-carboxylic acid] | < 1 | < 1 | < 1
C#CCOCCOCCO[C@]1(C(=O)O)C[C@H](O)[C@@H](NC(=O)CO)[C@H]([C@H](O)[C@H](O)CNC(=O)Cc2ccc(F)c(C(F)(F)F)c2)O1 [Compound 132, (2R,4S,5R,6R)-6-((1R,2R)-3-(2-(4-fluoro-3-(trifluoromethyl)phenyl)acetamido)-1,2-dihydroxypropyl)-4-hydroxy-5-(2-hydroxyacetamido)-2-(2-(2-(prop-2-yn-1-yloxy)ethoxy)ethoxy)tetrahydro-2H-pyran-2-carboxylic acid] | > 10 | 1 to 10 | < 1
C#CCOCCOCCO[C@]1(C(=O)O)C[C@H](O)[C@@H](NC(=O)CO)[C@H]([C@H](O)[C@H](O)CNC(=O)Cc2cc(F)cc(C(F)(F)F)c2)O1 [Compound 133, (2R,4S,5R,6R)-6-((1R,2R)-3-(2-(3-fluoro-5-(trifluoromethyl)phenyl)acetamido)-1,2-dihydroxypropyl)-4-hydroxy-5-(2-hydroxyacetamido)-2-(2-(2-(prop-2-yn-1-yloxy)ethoxy)ethoxy)tetrahydro-2H-pyran-2-carboxylic acid] | > 10 | < 1 | < 1
C#CCOCCOCCO[C@]1(C(=O)O)C[C@H](O)[C@@H](NC(=O)CO)[C@H]([C@H](O)[C@H](O)CNC(=O)Cc2ccc(Cl)c(O)c2)O1 [Compound 134, (2R,4S,5R,6R)-6-((1R,2R)-3-(2-(4-chloro-3-hydroxyphenyl)acetamido)-1,2-dihydroxypropyl)-4-hydroxy-5-(2-hydroxyacetamido)-2-(2-(2-(prop-2-yn-1-yloxy)ethoxy)ethoxy)tetrahydro-2H-pyran-2-carboxylic acid] | 1 to 10 | < 1 | < 1
C#CCCOc1ccc(CO[C@]2(C(=O)O)C[C@H](O)[C@@H](NC(=O)CO)[C@H]([C@H](O)[C@H](O)CNC(=O)Cc3ccc(Cl)c(O)c3)O2)cc1 [Compound 135, (2R,4S,5R,6R)-2-((4-(but-3-yn-1-yloxy)benzyl)oxy)-6-((1R,2R)-3-(2-(4-chloro-3-hydroxyphenyl)acetamido)-1,2-dihydroxypropyl)-4-hydroxy-5-(2-hydroxyacetamido)tetrahydro-2H-pyran-2-carboxylic acid] | < 1 | < 1 | < 1
